Publication PMC5391125, “Fatty acid DSF binds and allosterically activates histidine kinase RpfC of phytopathogenic bacterium Xanthomonas campestris pv. campestris to regulate quorum-sensing and virulence” (PLoS Pathogens, 2017)

Key:
RpfC^FL liposome [1] = biological target: T1, RpfC^FL liposome (Xanthomonas campestris pv. campestris, UniProt P0C0F7); test: Thermal shift assay (differential scanning fluorimetry), RpfC^FL liposome; type: binding
T1 construct: His6 (C); made in house; host or cells: E. coli BL21(DE3), pET30a
Protocol: (§1) DSF was mixed with purified proteins or liposomes of RpfC to a final concentration of 0 μM, 5 μM or 10 μM respectively in the reaction buffer (50 mM Tris-HCl pH 7.8, 25 mM NaCl, 100 mM KCl). The protein concentration was 0.5–1 μg/μl. The TSA was performed by a Prometheus NT.48 nanoDSF device with a temperature gradient of 20–95°C, 1°C /min. Unfolding transition points were determined according to the changes of intrinsic tryptophan fluorescence at 330 nm, 350 nm. The ratio of fluorescence and the melting temperature (Tm) were calculated by the NT Melting Control software (NanoTemper Technologies).

RpfC^Δsensor liposome [2] = biological target: T2, RpfC^Δsensor liposome (Xanthomonas campestris pv. campestris, UniProt P0C0F7); test: Thermal shift assay, RpfC^Δsensor liposome; type: binding
T2 construct: His6 (C); made in house; host or cells: E. coli BL21(DE3), pET30a
Protocol: as §1

[3] = biological target: T3, soluble RpfC protein without input region (RpfC^Δinput) (Xanthomonas campestris pv. campestris, UniProt P0C0F7); test: MST binding, soluble RpfC^Δinput; details: RpfC^Δinput 0.1 μM
T3 construct: a truncated, soluble RpfC protein (RpfC^Δinput) lacking the N-terminal input region (including sensor and TM domains) was obtained and purified; His6 (C); made in house; host or cells: E. coli BL21(DE3), pET30a

RpfS = biological target: RpfS; parameters: method as in PMID 24617591, PMID 23815566; details: by ITC; read-out: binding affinity (Kd) DSF-RpfS; cited from earlier work
RpfC^Δsensor liposome [4] = biological target: T2, RpfC^Δsensor liposome; test: MST binding, RpfC^Δsensor liposome
Protocol: (§2) Binding reactions of RpfC to DSF was measured by microscale thermophoresis in a Monolith NT.Label Free (Nano Temper Technologies GMBH, Germany) instrument which detects changes in size, charge and conformation induced by binding. RpfC liposomes were collected with centrifugation of 200,000 g for 40 min and resuspended in MST buffer (50 mM Tris-HCl pH 7.8, 150 mM NaCl, 10 mM MgCl2, 0.05% Tween-20) to an approximate concentration of 0.1 μM. A range of concentration of DSF (range from 0.06 μM to 2 mM) in assay buffer (50 mM Tris-HCl pH 7.8, 150 mM NaCl, 10 mM MgCl2, 0.05% Tween-20, 5% methanol) was incubated with RpfC liposomes (1:1, v/v) for 10 minutes. The sample was loaded into the NT.Label Free standard capillaries and measured with 20% LED power and 40% MST power. Purified sensor protein was dissolved in reaction buffer (50 mM Tris-HCl pH 8.5, 150 mM NaCl, 0.1% Tween-20) to a final concentration as 8 μM. Dilute DSF from 0.0122 μM to 25 μM in buffer (50 mM Tris-HCl pH 8.5, 150 mM NaCl, 0.25‰ methanol). Different concentrations of DSF and sensor protein (1:1, v/v) were mixed and loaded into NT.Label Free standard capillaries. The label free MST assay was performed with 20% LED power and 40% MST power. KD Fit function of the Nano Temper Analysis Software Version 1.5.41 was used to fit curve and calculate the value of dissociation constant (Kd).

RpfC^S18T liposome = biological target: T4, RpfC^S18T liposome (Xanthomonas campestris pv. campestris, UniProt P0C0F7, S18T); test: Autokinase assay, RpfC^S18T liposome; type: biochemical; details: 0.75 μM DSF, 5 min; increase slightly lower than WT RpfC
T4 construct: His6 (C); made in house; host or cells: E. coli BL21(DE3), pET30a
Protocol: (§3) in vitro phosphorylation assay was conducted as described in our previous study. For autophosphoylation, RpfC liposomes or IMV were incubated with 100 μM ATP containing 10 μCi [γ-^32P]ATP (PerkinElmer, USA) in autophosphorylation buffer (50 mM Tris-HCl, pH 7.8, 2 mM DTT, 25 mM NaCl, 25 mM KCl, 5 mM MgCl2) for indicated time (28°C). If necessary, DSF was added into the mixture 20 min before addition of ATP. The reaction was stopped with 6 × SDS-PAGE loading buffer. The phosphorylated proteins were separated by 12% SDS-PAGE. After SDS-PAGE electrophoresis, gels were separated from back glass plate and placed in a Ziploc bag and exposed to a phosphor screen for 1 hour. The screen was scanned with a PhosphorImage system (Amersham Biosciences, USA) at […]. If necessary, signal intensity was measured by Quantity One software (Bio-Rad).

RpfC^FL liposome [5] = biological target: T1, RpfC^FL liposome; test: Microscale thermophoresis (MST) binding, RpfC^FL liposome; details: RpfC liposome 0.1 μM, read-out: dissociation constant (Kd)
Protocol: as §2

RpfC^S3A liposome = biological target: T5, RpfC^S3A liposome (Xanthomonas campestris pv. campestris, UniProt P0C0F7, S3A); test: Autokinase assay, RpfC^S3A liposome; type: biochemical; details: 0.75 μM DSF, 5 min
T5 construct: His6 (C); made in house; host or cells: E. coli BL21(DE3), pET30a
Protocol: as §3

RpfC^FL = biological target: T6, RpfC^FL (Xanthomonas campestris pv. campestris, UniProt P0C0F7); test: Dose-response of DSF on RpfC autokinase activity; type: biochemical
T6 construct: His6 (C); made in house; host or cells: E. coli BL21(DE3), pET30a
Protocol: as §3

RpfC^FL IMV = biological target: T7, RpfC^FL IMV (Xanthomonas campestris pv. campestris, UniProt P0C0F7); test: In vitro autokinase assay, RpfC^FL inverted membrane vesicles; type: biochemical; details: 10 μM DSF
T7 construct: His6 (C); made in house; host or cells: E. coli BL21(DE3), pET30a
Protocol: as §3

RpfC sensor peptide = biological target: T8, RpfC sensor peptide (Xanthomonas campestris pv. campestris, UniProt P0C0F7); test: MST binding, purified RpfC sensor peptide; details: sensor peptide with GST tag removed, read-out: dissociation constant (Kd)
T8 construct: GST (N, cleaved yes); made in house; host or cells: E. coli BL21 (DE3), pGEX6P-1
Protocol: RpfC sensor fused with a GST tag was obtained and purified according to the GST Gene Fusion System Handbook (Amersham Biosciences) with GST Resin (TRANS). In order to acquire sensor peptide with GST tag cleaved off, on-column cleavage procedure was conducted. In brief, lysate of recombinant E.coli BL21 (DE3) strain was mixed with pre-equilibrated GST Resin with PBS buffer for ten minutes before loading into column. The column was washed by PBS buffer and resuspened with PreScission buffer (50 mM Tris-HCl, pH 8.5, 150 mM NaCl). Following the injection of 2 units PreScission Protease (GenScript), the column was sealed and placed on a rotator at 4°C. After 10 h of digestion, the flow fractions were collected, which contains preliminary sensor peptide with the GST tag being moved. If necessary, the sensor peptide was purified again by the GST Resin to get rid of uncleaved sensor-GST fusion protein. […]
Binding reactions of RpfC to DSF was measured by microscale thermophoresis in a Monolith NT.Label Free (Nano Temper Technologies GMBH, Germany) instrument which detects changes in size, charge and conformation induced by binding. […] The sample was loaded into the NT.Label Free standard capillaries and measured with 20% LED power and 40% MST power. […]

For `CC(C)CCCCCCC/C=C\C(=O)O` [DSF, cis-11-methyl-dodecenoic acid], the “melting temperature (Tm)” value (RpfC^FL liposome [1]; 5 μM DSF vs. 10 μM RpfC) was 64.27 °C, the “melting temperature (Tm)” value (RpfC^FL liposome [1]; 10 μM DSF vs. 10 μM RpfC) was 66.27 °C and the “thermal shift after DSF stimulation” value (RpfC^Δsensor liposome [2]) was “no thermal shift was detected”. The “binding to DSF” value [3] was “didn’t bind”, the Kd (RpfS) was 1400 nM and the “binding to DSF” value (RpfC^Δsensor liposome [4]) was “didn’t bind”. The “autophosphorylation level under DSF stimulation” value (RpfC^S18T liposome) was “increased”, the Kd (RpfC^FL liposome [5]) was 820 ± 120 nM and the “RpfC-P level under DSF stimulation” value (RpfC^S3A liposome) was “remarkably increased”. The “DSF concentration at which RpfC^FL-P levels tapered off (saturation)” value (RpfC^FL) was about 20 µM, the “DSF concentration sufficient to elicit a detectable increase in RpfC^FL-P level” value (RpfC^FL) was 0.5 µM and the “level of RpfC^FL-P phosphorylation compared with the control” value (RpfC^FL IMV) was “approximately doubled”. For the same compound, the “time of increase in phosphorylation level post DSF addition” value (RpfC^FL IMV) was 30 s and the Kd (RpfC sensor peptide) was 140 ± 40 nM.
